The results in this text go back to patent US7408071B2, “N-aryl pyrrolidine derivatives as beta-secretase inhibitors” (Bristol-Myers Squibb Company, priority 2006, dated 2008).

The assay has as its target T1, BACE1 enzyme (Homo sapiens, UniProt P56817).
T1 construct: The HEK293-9B.A1 cell line, which overexpresses the BACE1 enzyme, was derived from HEK293 cells; endogenous in cells; washed 48,000xg membrane pellet/homogenate
The assay can be described thus: Radioligand displacement assay with a radiolabeled BACE inhibitor on HEK293-9B.A1 cell homogenate. In kind it is binding. The conditions noted are these: displacement of 1 nM tritiated radioligand, HEK293-9B.A1 homogenate, pH 5.0, 1.5 hr at 25° C.; read-out: Activity Rating (activity based on IC50 values). The text has this:
There are a number of methods by which inhibitors of the BACE enzyme can be identified experimentally. The enzyme can be obtained from membrane samples from natural tissues or cultured cells or can be expressed recombinantly in a host cell by well known methods of molecular biology. The whole enzyme or a portion thereof can be expressed, for example, in bacterial, insect or mammalian cells to obtain a catalytically active enzyme species. The enzymatic activity and/or ligand binding capability of the enzyme can be assessed within these membrane samples, or the enzyme can be purified to varying extents. As an illustrative example, the nucleic acid sequence encoding the pro and catalytic domains of human BACE can be appended on the 5′ end with an untranslated and signal sequence from the gene for acetylcholinesterase, and on the 3′ end with a sequence encoding a poly-histidine tag. This cDNA can then be expressed in Drosophila melanogaster S2 cells in which the signal and pro sequences of the transcribed/translated protein are removed by cellular proteases and the catalytic domain, appended by a C-terminal poly-histidine tag, is secreted out into the cellular medium. The enzyme can then be purified from the culture medium by nickel affinity chromatography by methods well known to those trained in the art [Mallender, W. et al., (2001) “Characterization of recombinant, soluble beta-secretase from an insect cell expression system.” Mol. Pharmacol. 59: 619-626]. Similar strategies for expressing and purifying various forms of BACE in bacterial, mammalian and other cell types would be known to one skilled in the art. A preferred method for determining the potency of a test compound in binding to the BACE enzyme is by monitoring the displacement of a suitable radioligand.
Radioligand displacement assays with a radiolabeled BACE inhibitor (WO 2004 013098, compound 3, where the methoxy group is substituted for C(^3H)3) were carried out using standard methods (Keen, M. (1999) in Receptor Binding Techniques (Walker, J. M. ed) p. 106 Humana Press, Totowa, N.J.). The HEK293-9B.A1 cell line, which overexpresses the BACE1 enzyme, was derived from HEK293 cells (Simmons, N. L. (1990) A cultured human renal epithelioid cell line responsive to vasoactive intestinal peptide. Exp. Physiol. 75:309-19.) by RAGE™ (Harrington, J. J. et al. (2001) Creation of genome-wide protein expression libraries using random activation of gene expression. Nat. Biotechnol. 19:440-5.; U.S. Pat. Nos. 6,410,266 and 6,361,972). T225 flask cultures of HEK293-9B.A1 were grown to 80% confluency in DMEM supplemented with 2 mM L-glutamine, 10 μg/ml penicillin, 10 μg/ml streptomycin, 3 μg/ml puromycin, 100 nM methotrexate, and 10% fetal bovine serum (Invitrogen, Carlsbad, Calif.), harvested, and resuspended at 2×10^8 cells per 10 ml of lysis buffer consisting of 50 mM HEPES pH 7.0 containing a protease inhibitor cocktail of AEBSF 104 μM, aprotinin 80 nM, leupeptin 2 μM, bestatin 4 μM, pepstatin A 1.5 μM, and E-64 1.4 μM (0.1% of protease inhibitor cocktail P8340, Sigma-Aldrich, St. Louis, Mo.) at 4° C. The resuspended cells were homogenized using a Polytron (Brinkman, Westbury, N.Y.) at setting 6 for 10 sec., then centrifuged at 48,000×g for 10 min. The resulting pellet was washed by repeating the resuspension, homogenization and centrifugation steps. The final pellet was resuspended in buffer at 4° C. to yield a total protein concentration of 5 mg/ml, then aliquots were frozen in liquid nitrogen for further storage at −70° C. Immediately before carrying out a binding assay, an aliquot of cell homogenate was thawed and diluted to a concentration of 100 μg/ml in assay buffer consisting of 50 mM HEPES pH 5.0 and 0.1% CHAPSO. […]
Background: In a radioligand displacement assay an active substance lowers the binding of a labelled ligand.

Bounds are passed on as bounds.

T1 sequence (P56817 46-501): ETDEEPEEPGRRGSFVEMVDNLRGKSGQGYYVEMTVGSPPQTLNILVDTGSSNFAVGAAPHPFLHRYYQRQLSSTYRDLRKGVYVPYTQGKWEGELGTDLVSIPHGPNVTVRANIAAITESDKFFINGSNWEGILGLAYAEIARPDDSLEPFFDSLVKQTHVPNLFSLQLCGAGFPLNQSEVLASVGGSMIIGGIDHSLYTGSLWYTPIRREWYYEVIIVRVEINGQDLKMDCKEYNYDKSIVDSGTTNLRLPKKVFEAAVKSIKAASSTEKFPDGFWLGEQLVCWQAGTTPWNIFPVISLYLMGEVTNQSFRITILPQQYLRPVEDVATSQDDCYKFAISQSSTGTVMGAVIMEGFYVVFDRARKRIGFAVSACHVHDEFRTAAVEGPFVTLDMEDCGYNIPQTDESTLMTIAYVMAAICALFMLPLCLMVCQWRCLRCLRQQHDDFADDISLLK

Regarding `N/C(=N\C(=O)[C@@H]1CCCN1c1ccccc1)NCc1cc(Cl)c(N)c(Cl)c1` [Example 1, (S)—N-((4-Amino-3,5-dichlorobenzylamino)(amino)methylene)-1-phenylpyrrolidine-2-carboxamide], the half-maximal inhibitory concentration (IC50) (in general, the midpoint of a concentration-inhibition curve) was 100 to 1000 nM.
With `CC(=O)Nc1c(Cl)cc(CN/C(N)=N/C(=O)[C@@H]2CCCN2c2ccccc2)cc1Cl` [Example 2, (S)—N-((4-Acetamido-3,5-dichlorobenzylamino)(amino)methylene)-1-phenylpyrrolidine-2-carboxamide] the figure was 100 to 1000 nM; with `CN(C)CC(=O)Nc1c(Cl)cc(CN/C(N)=N/C(=O)[C@@H]2CCCN2c2ccccc2)cc1Cl` [Example 3, (S)—N-((3,5-Dichloro-4-(2-(dimethylamino)-acetamido)-benzylamino)(amino)methylene)-1-phenylpyrrolidine-2-carboxamide], 100 to 1000 nM.
On to `COc1ccc(N2CCC[C@H]2C(=O)/N=C(\N)NCc2cc(Cl)c(N)c(Cl)c2)cc1` [Example 4, (S)—N-((4-Amino-3,5-dichlorobenzylamino)(amino)methylene)-1-(4-methoxyphenyl)pyrrolidine-2-carboxamide], for which the half-maximal inhibitory concentration (IC50) was 100 to 1000 nM.
Take `COc1ccc(N2CCC[C@H]2C(=O)/N=C(\N)NCc2cc(Cl)c(NC(C)=O)c(Cl)c2)cc1` [Example 5, (S)—N-((4-Acetamido-3,5-dichlorobenzylamino)(amino)methylene)-1-(4-methoxyphenyl)pyrrolidine-2-carboxamide]: the IC50 lay within 100 to 1000 nM.
As to `COc1ccc(N2CCC[C@H]2C(=O)/N=C(\N)NCc2cc(Cl)c(NC(=O)CN(C)C)c(Cl)c2)cc1` [Example 6, (S)—N-((3,5-Dichloro-4-(2-(dimethylamino)acetamido)benzylamino)-(amino)methylene)-1-(4-methoxyphenyl)pyrrolidine-2-carboxamide], the IC50 fell in the range of 100 to 1000 nM.
With `CN(C)CC(=O)Nc1c(Cl)cc(CN/C(N)=N/C(=O)[C@H]2CCCN2c2ccc(C(F)(F)F)cc2)cc1Cl` [Example 31, (R)—N-(Amino(3,5-dichloro-4-(2-(dimethylamino)acetamido)-benzylamino)methylene)-1-(4-(trifluoromethyl)phenyl)pyrrolidine-2-carboxamide], the half-maximal inhibitory concentration (IC50) was less than 100 nM.
Regarding `CO[C@@H]1C[C@@H](C(=O)/N=C(\N)NCc2cc(Cl)c(NC(C)=O)c(Cl)c2)N(c2ccccc2)C1` [Example 32, (2S,4R)—N-((4-Acetamido-3,5-dichlorobenzylamino)(amino)-methylene)-4-methoxy-1-phenylpyrrolidine-2-carboxamide], the IC50 was less than 100 nM.
Regarding `CO[C@@H]1C[C@@H](C(=O)/N=C(\N)NCc2cc(Cl)c(NC(=O)CN(C)C)c(Cl)c2)N(c2ccccc2)C1` [Example 33, (2S,4R)—N-(Amino(3,5-dichloro-4-(2-(dimethylamino)acetamido)benzylamino)methylene)-4-methoxy-1-phenylpyrrolidine-2-carboxamide], the IC50 was less than 100 nM.
For the compound `CC(=O)Nc1c(Cl)cc(CN/C(N)=N/C(=O)C2C3CC3CN2c2ccccc2)cc1Cl` (stereo not drawn) [Example 34, cis-N-((4-Acetamido-3,5-dichlorobenzylamino)(amino)methylene)-3-phenyl-3-azabicyclo[3.1.0]hexane-2-carboxamide], the 50% inhibitory concentration (IC50) is 100 to 1000 nM.
